# Test results: patent US20230194472A1, “MICRORNA ANALYSIS USING TUNNELING CURRENT” (Osaka University, priority 2019, published 2023)
# Experiments:
# [1] = tested on: 5-fluorouracil (5-FU) resistant strain of colon cancer cell strain DLD-1; assay: IC50 measurement on 5-fluorouracil resistant strain derived from DLD-1; format: cell-based; settings: Homo sapiens; DLD-1 maintained 6 months or longer in the presence of 5-fluorouracil; confirmed resistant strain; read-out: IC50 with respect to 5-fluorouracil for the cultured cells
# [2] = tested on: trifluridine (FTD) resistant strain of colon cancer cell strain DLD-1; assay: IC50 measurement on trifluridine resistant strain derived from DLD-1; format: cell-based; settings: Homo sapiens; DLD-1 maintained 6 months or longer in the presence of trifluridine; confirmed resistant strain; read-out: IC50 with respect to trifluridine for the cultured cells
# Protocol: Quantitative analysis of a microRNA was performed by tunneling current measurement. Colon cancer cell strain (DLD1) and 5-fluorouracil (5-FU) or trifluridine (FTD) resistant strains were used as samples.
# Cancer cell strain DLD-1 obtained from a cell bank was maintained in a culture for 6 months or longer in the presence of trifluridine or 5-fluorouracil (Aldrich-Sigma) (about […]). The maintained culture was passaged about twice a week to maintain 60 to 80% confluence at 37° C. in a
# DMEM medium supplemented with 10% serum on a plastic dish.
IC50 [1],IC50 [2],Structure (SMILES)
300 µM,,O=c1[nH]cc(F)c(=O)[nH]1 [5-fluorouracil]
,300 µM,O=c1[nH]c(=O)n([C@H]2C[C@H](O)[C@@H](CO)O2)cc1C(F)(F)F [trifluridine]
